Experimental data reported in patent publication US8044018B2, “Reagents and methods for smooth muscle therapies” (Arizona Board of Regents, priority 2008, dated 2011).
Non-standard residues stand in square brackets, D forms with d. No end group written: not given here. *: point of attachment. FITC = O=C1OC2(c3ccc(O)cc3Oc3cc(O)ccc32)c2ccc(NC(=S)*)cc21; Fmoc = O=C(OCC1c2ccccc2-c2ccccc21)*; pS = N[C@@H](COP(=O)(O)O)C(=O)O; βAla = NCCC(=O)O

Key:
Mesangial cells [1] = assay: Wrinkle assay: mesangial cells transfected with GFP, WT HSP20 or S16A-HSP20, on silicone rubber substrata; format: cell-based; conditions: dibutyryl cAMP 10 ΦM, 0-90 minutes
Protocol: The experiment was performed in the following fashion: Mesangial cells were transfected with vectors containing green fluorescent protein (GFP) alone, GFP fused to the 5′ end of the wild type cDNA for HSP20 (WT), or GFP fused to an HSP20 construct in which the PKA phosphorylation site was mutated to an alanine (S16A-HSP20) (MUT). The cells were plated on a silicone rubber substrata in the presence of serum for 48 hours. The plates were then placed on the stage of a Zeiss Inverted Fluorescence Microscope with DeltaVision image acquisition and deconvolution software (Applied Precision, Issaquah, Wash.). The DeltaVision software was configured to eight different cells (x and y axis) on each plate with 7 z-axis images taken at […] intervals. Fluorescent and phase contrast images were obtained such that the cells and silicone membrane were imaged in close succession. During the scanning process, the z-axis of each cell was monitored to assure that the imaging stacks were maintained at the appropriate level as the cells relaxed on the silicone membrane. Baseline images were acquired for one hour. The cells were then treated with […] dibutyryl cAMP (10 ΦM) for 0 minutes, 30 minutes, 60 minutes, or 90 minutes, and the results are illustrated in FIG. 1. […]

[2] = test system: PKG transfected rat aortic smooth muscle cells; assay: Wrinkle assay: PKG transfected rat aortic smooth muscle cells on silicone substrata; format: cell-based; conditions: 10 uM for 30 minutes
Protocol: Rat aortic smooth muscle cells that are multiply passaged or that stably express PKG were cultured on a silicone substrata in the presence of serum. The cells were imaged with phase contrast microscopy (10× magnification). […] To determine if the wrinkles were reversible, PKG transfected cells were treated with dibutyryl cAMP (10 uM) for 30 minutes.

Mesangial cells [3] = assay: Actin filament staining (rhodamine phalloidin) of transfected mesangial cells; format: cell-based; conditions: 10 μM for 30 minutes; cells transfected with EGFP alone or S16A-HSP20
Text: Transfected mesangial cells were fixed and the actin filaments were stained with fluorescent-labeled phalloidin.

[4] = test system: Rat aortic smooth muscle cells; assay: LPA-induced actin fiber formation, phalloidin staining and confocal microscopy; format: cell-based
Protocol: Rat aortic smooth muscle cells were treated with lyophosphatidic acid (LPA) in the presence and absence of FITC-TAT-pHSP20 (FITC-NH2-β[…]*APLPGLK-COOH, 50 uM) (SEQ ID NO:307) Lysophosphatidic acid (LPA) is a substance which promotes actin fiber formation.
The cells were fixed and stained with phalloidin and images were obtained with confocal microscopy. […] These studies confirm that HSP20 has a direct role in modulating actin fiber formation.

rabbit aorta = assay: Muscle bath: rabbit aorta rings pre-contracted with norepinephrine, endothelium not denuded; conditions: pre-contracted with norepinephrine 10^−7 M; for relaxation and inhibition of spasm: peptides retained the Fmoc moiety
Protocol: Rings of rabbit aorta in which the endothelium was not denuded, were suspended in a muscle bath containing bicarbonate buffer (120 mM NaCl, 4.7 mM KCl, 1.0 mM MgSO4, 1.0 mM NaH2PO4, 10 mM glucose, 1.5 mM CaCl2, and 25 mM […], pH 7.4), equilibrated with 95% O2/5% CO2, at 37° C. at one gram of tension for 2 hours. The rings were pre-contracted with norepinephrine (10^−7 M) and treated with RRRRRRApSAPLP (SEQ ID NO:309) or RRRRWLRRApSAPLP (SEQ ID NO:310). […] The peptides used were prepared by Fmoc-based peptide synthesis, and the peptides retained the Fmoc moiety at the amino terminus of the peptide.

[5] = test system: Bovine aortic endothelial cells; assay: Focal adhesion disassembly, interference reflection microscopy; format: cell-based; conditions: HSP20 peptides 10 uM for 30 minutes; serum starved one hour
Protocol: Bovine aortic endothelial cells were plated on glass coverslips (80K-100K cells) in DMEM plus 10% FBS over night (24 wells plate). The cells were serum starved (no serum) for one hour and incubated in the presence of the peptide analogues of HSP20 [NH2-βAYARRAAARQARAWLRRAS*APLPGLK-COOH-pHSP20 (10 uM) (SEQ ID NO:307) or scrambled analogues of HSP20 [NH2-βAYARRAAARQARAPRKS*LWALGRPLA-COOH-scHSP20 (10 uM)] (SEQ ID NO:308) for 30 minutes. The cells were fixed with 3% glutaraldehyde and the number of focal adhesions was detected with interference reflection microscopy. The Hep I peptide was used as a positive control. This peptide binds to the heparin binding site of thrombospondin in induces focal adhesion disassembly. […] The results are illustrated in FIG. 7.

A10 cells = assay: Serum-induced proliferation, cell counts; format: cell-based; conditions: 50 μM in 10% FBS; 24 hours; serum starved 3 days beforehand
Protocol: A10 cells were serum starved for 3 days. The cells were then treated with media containing 10% fetal bovine serum, PTD-pHSP20 (NH2-βAYARRAAARQARAWLRRAS*APLPGLK-COOH (SEQ ID NO:307), or PTD-scrambled-pHSP20 (NH2-βAYARRAAARQARAPRKS*LWALGRPLA-COOH (SEQ ID NO:308) (50 μM). After 24 hours cell counts were performed. The number of cells per well in the serum starved plates averaged […] (+/−7.4) compared to 276+/−6.1 in wells containing 10% fetal bovine serum (FBS). In the presence of FBS, the phosphopeptide analogues of HSP20 containing a transduction domain inhibited of smooth muscle proliferation, 149+/−14.6 compared to transduction of the scrambled phosphopeptide analogue of HSP20 (242.3+/−15.3 cells/well). The results of these experiments are illustrated in FIG. 9.

Mesangial cells [6] = assay: Wrinkle assay: mesangial cells on silicone substrata treated with phosphopeptide; format: cell-based; conditions: 50 μM peptide; plated 48 hours in serum; phase contrast microscopy; n=10
Protocol: Mesangial cells were plated on a silicone substrata in the presence of serum and after 48 hours the cells were treated with the FITC-TAT-HSP20 phosphopeptide (50 μM). The number of wrinkles under the cells was determined at the time points indicated using phase contrast microscopy (n=10, *=p<0.05 compared to time 0). Results of this Experiment are illustrated in FIG. 2.

[7] = test system: bovine carotid artery smooth muscle; assay: Muscle bath: serotonin pre-contracted strips of bovine carotid artery, denuded of endothelium; conditions: cumulative doses added every 10 minutes; n=5
Protocol: Transverse strips of bovine carotid artery smooth muscle, denuded of endothelium, were suspended in a muscle bath containing bicarbonate buffer (120 mM NaCl, 4.7 mM KCl, 1.0 mM MgSO4, 1.0 mM NaH2PO4, 10 mM glucose, 1.5 mM CaCl2, and 25 mM […], pH 7.4), equilibrated with 95% O2/5% CO2, at 37° C. at one gram of tension for 2 hours. The muscles were pre-contracted with serotonin ([…] for 10 minutes) and cumulative doses of FITC-phosphoHSP20-TAT, FITC-scrambled phosphoHSP20-TAT (FITC-NH2-β[…]*LWALGRPLA-COOH, open circles) (SEQ ID NO:305), or FITC-TAT (FITC-NH2-β[…], closed triangles) (SEQ ID NO:306) were added every 10 minutes. The force is depicted as a percentage of the maximal serotonin contraction (n=5, *=p<0.05 compared to 0 peptide added). Representative strips were fixed in 4% paraformaldehyde and examined under fluorescence microscopy (40× magnification).

Molecule: CCCC(=O)Nc1ncnc2c1ncn2[C@@H]1O[C@@H]2COP(=O)(O)O[C@H]2[C@H]1OC(=O)CCC [dibutyryl cAMP]
- wrinkles under the cells (relaxation) (Mesangial cells [1]; cells expressing S16A-HSP20 (MUT)): did not relax
- wrinkles under the cells (relaxation) (Mesangial cells [1]; control cells expressing GFP): relaxed over time
- wrinkle formation [2]: decrease in wrinkle formation
- central actin stress fibers (Mesangial cells [3]): loss of central actin stress fibers in EGFP but not S16A-HSP20 cells

Molecule: Lysophosphatidic acid [LPA, reference compound]
- actin stress fiber formation ([4]; LPA alone): robust actin stress fiber formation

Molecule: RRRRWLRRApSAPLP (Fmoc-RRRRWLRRA[pS]APLP)
- speed and duration of relaxation compared with the longer peptides (rabbit aorta): relaxation was faster and the muscles remained in a relaxed state for longer
- relaxation and inhibition of spasm (rabbit aorta): rapid and complete relaxation and inhibition of spasm

Molecule: NH2-βAYARRAAARQARAPRKS*LWALGRPLA-COOH (AYARRAAARQARAPRKSLWALGRPLA; HELM PEPTIDE1{[bAla].Y.A.R.R.A.A.A.R.Q.A.R.A.P.R.K.[O=C([C@H](COP(=O)(O)O)N[*:1])[*:2]].L.W.A.L.G.R.P.L.A}$$$$V2.0; SMILES CC(C)C[C@H](NC(=O)[C@H](C)NC(=O)[C@H](Cc1c[nH]c2ccccc12)NC(=O)[C@H](CC(C)C)NC(=O)[C@H](COP(=O)(O)O)NC(=O)[C@H](CCCCN)NC(=O)[C@H](CCCNC(=N)N)NC(=O)[C@@H]1CCCN1C(=O)[C@H](C)NC(=O)[C@H](CCCNC(=N)N)NC(=O)[C@H](C)NC(=O)[C@H](CCC(N)=O)NC(=O)[C@H](CCCNC(=N)N)NC(=O)[C@H](C)NC(=O)[C@H](C)NC(=O)[C@H](C)NC(=O)[C@H](CCCNC(=N)N)NC(=O)[C@H](CCCNC(=N)N)NC(=O)[C@H](C)NC(=O)[C@H](Cc1ccc(O)cc1)NC(=O)CCN)C(=O)NCC(=O)N[C@@H](CCCNC(=N)N)C(=O)N1CCC[C@H]1C(=O)N[C@@H](CC(C)C)C(=O)N[C@@H](C)C(=O)O) [PTD-scrambled-pHSP20, Scrambled analogue of the HSP20 phosphopeptide with PTD, control, reference compound]
- focal adhesion disassembly (number of focal adhesions) [5]: no significant effect
- number of cells per well (A10 cells): 242.3+/−15.3 cells/well

Molecule: NH2-βAGGGGYGRKKRRQRRRWLRRAS*APLPGLK-COOH ([βAla]GGGGYGRKKRRQRRRWLRRA[pS]APLPGLK-OH; not fully specified (N-terminus); printed as NH2-βAGGGGYGRKKRRQRRRWLRRAS*APLPGLK-COOH; also: FITC label, position not given here) [FITC-TAT-HSP20]
- number of wrinkles under the cells (relaxation of the cells) (Mesangial cells [6]): time dependent loss of wrinkles
- contractile force as percentage of the maximal serotonin contraction [7]: dose dependent decrease
- central actin stress fibers ([4]; LPA in the presence of peptide, 50 uM): loss of central actin stress fibers

Molecule: FITC-NH2-βAGGGGYGRKKRRQRRRPRKS*LWALGRPLA-COOH ({FITC}-[βAla]GGGGYGRKKRRQRRRPRK[pS]LWALGRPLA-OH) [FITC-scrambled phosphoHSP20-TAT]
- contractile force as percentage of the maximal serotonin contraction [7]: no significant effect

Molecule: FITC-NH2-βAGGGGYGRKKRRQRRR ({FITC}-[βAla]GGGGYGRKKRRQRRR) [FITC-TAT, FITC-labelled TAT transduction domain alone, control]
- contractile force as percentage of the maximal serotonin contraction [7]: no significant effect

Molecule: RRRRRRApSAPLP (Fmoc-RRRRRRA[pS]APLP)
- speed and duration of relaxation compared with the longer peptides (rabbit aorta): relaxation was faster and the muscles remained in a relaxed state for longer
- relaxation and inhibition of spasm (rabbit aorta): rapid and complete relaxation and inhibition of spasm
